Consider two compounds from patent US10702506B2, “Small molecule inhibitors of pendrin ion exchange and pharmaceutical compositions” (THE REGENTS OF THE UNIVERSITY OF CALIFORNIA, priority 2016, dated 2020).

Experiment [1] deals with HBE and CFBE cell cultures. Briefly: ASL depth by confocal imaging of rhodamine B-dextran in HBE and CFBE cultures. Format: cell-based, human. Particulars: 25 μM, 4-6 hours. Here is the method: ASL depth was measured in HBE and CFBE cell cultures under basal conditions and with chronic IL-13-treatment. […] Treatment of HBE and CFBE cell cultures with IL-13 produced a significant increase in ASL depth to ˜16 μm. Remarkably, treatment of IL-13-treated HBE and CFBE cell cultures with PDSinh-A01 produced a significant further increase in ASL depth of ˜8 μm (FIG. 6A, right; summary in FIG. 6B). Pendrin inhibition thus causes ASL hydration in IL-13-treated HBE and CFBE cell cultures, providing pharmacological evidence for pendrin as a key regulator of ASL hydration in airway cell cultures exposed to an inflammatory stimulant.
ASL depth was measured by confocal imaging of rhodamine B-dextran fluorescence (20 μl of 0.1 mg/ml in PBS) applied 4-6 h prior to measurement. Scanning confocal microscopy was done using an upright Nikon EZ-C1 confocal microscope equipped with a LUMplan FL N 60×/1.00w objective (Olympus, Waltham, Mass.). […] In some experiments ASL depth was measured after treatment with 25 μM PDSinh-A01 in the culture medium for 4-6 hours. ASL depth was measured using a multi-point histogram method in which each confocal z-stack was fitted to a quadratic function, as described and validated previously.

The next experiment has as its target T1, CFTR (Homo sapiens, UniProt P13569).
T1 construct: endogenous in cells; host or cells: IL-13-treated primary HBE cell cultures (HBE = non-CF donors)
The experiment can be described thus: Short-circuit current (Isc) analysis in IL-13-treated HBE cells, forskolin / CFTRinh-172 response. Format: cell-based. The note with it: 25 μM, 30 min pre-treatment. As to the method: Further experiments were done with PDSinh-A01 because of its greater inhibition potency for Cl^−/HCO3^− exchange than PDSinh-C01. To investigate PDSinh-A01 specificity, the major ion transport pathways in HBE cells were studied by short-circuit current (Isc) analysis. Cells were treated with IL-13 to increase Ca^2+-activated Cl^− conductance (CaCC) activity. For Isc measurements, cells were sequentially treated with amiloride to inhibit the epithelial sodium channel (ENaC), forskolin to activate the cystic fibrosis transmembrane conductance regulator (CFTR), CFTRinh-172 to inhibit CFTR, and ATP to activate CaCC. In the absence of PDSinh-A01, ion channel modulators produced the anticipated changes in Isc (FIG. 4A).
IL-13-treated HBE cells were cultured on Snapwell clear permeable supports (12 mm diameter, 0.4 μm polyester membrane, Costar, Corning, Corning, N.Y.). Short-circuit current was measured using symmetrical HCO3^−-buffered solutions (in mM: 120 NaCl, 5 KCl, 1 MgCl2, 1 CaCl2, 5 Hepes, 25 NaHCO3; pH 7.4) as described, with ion transport modulators added to both apical and basolateral bathing solutions. Cells were equilibrated with 95% O2/5% CO2 and maintained at 37° C. during data acquisition. Statistical analysis was by Student's t-test.

The test system of experiment [2] is chronically furosemide-treated mice. Briefly: Chronic furosemide treatment model in mice. Particulars: 10 mg/kg after 8 days furosemide 20 mg/kg twice a day, 3 h urine. It counts as in vivo. Here is the method:
Because chronic loop diuretic treatment upregulates renal pendrin expression, which might potentiate the diuretic efficacy of pendrin inhibition, the action of PDSinh-C01 in a chronic furosemide treatment model.
In chronic studies, mice were injected with 20 mg/kg furosemide (ip) twice a day for 8 days and then administered PDSinh-C01 (10 mg/kg) or vehicle at the time of the final furosemide dose. Urine was collected for 3 h as described above.
After 8 days of furosemide treatment, PDSinh-C01 further potentiated the furosemide effect.

T1 sequence (P13569 whole entry): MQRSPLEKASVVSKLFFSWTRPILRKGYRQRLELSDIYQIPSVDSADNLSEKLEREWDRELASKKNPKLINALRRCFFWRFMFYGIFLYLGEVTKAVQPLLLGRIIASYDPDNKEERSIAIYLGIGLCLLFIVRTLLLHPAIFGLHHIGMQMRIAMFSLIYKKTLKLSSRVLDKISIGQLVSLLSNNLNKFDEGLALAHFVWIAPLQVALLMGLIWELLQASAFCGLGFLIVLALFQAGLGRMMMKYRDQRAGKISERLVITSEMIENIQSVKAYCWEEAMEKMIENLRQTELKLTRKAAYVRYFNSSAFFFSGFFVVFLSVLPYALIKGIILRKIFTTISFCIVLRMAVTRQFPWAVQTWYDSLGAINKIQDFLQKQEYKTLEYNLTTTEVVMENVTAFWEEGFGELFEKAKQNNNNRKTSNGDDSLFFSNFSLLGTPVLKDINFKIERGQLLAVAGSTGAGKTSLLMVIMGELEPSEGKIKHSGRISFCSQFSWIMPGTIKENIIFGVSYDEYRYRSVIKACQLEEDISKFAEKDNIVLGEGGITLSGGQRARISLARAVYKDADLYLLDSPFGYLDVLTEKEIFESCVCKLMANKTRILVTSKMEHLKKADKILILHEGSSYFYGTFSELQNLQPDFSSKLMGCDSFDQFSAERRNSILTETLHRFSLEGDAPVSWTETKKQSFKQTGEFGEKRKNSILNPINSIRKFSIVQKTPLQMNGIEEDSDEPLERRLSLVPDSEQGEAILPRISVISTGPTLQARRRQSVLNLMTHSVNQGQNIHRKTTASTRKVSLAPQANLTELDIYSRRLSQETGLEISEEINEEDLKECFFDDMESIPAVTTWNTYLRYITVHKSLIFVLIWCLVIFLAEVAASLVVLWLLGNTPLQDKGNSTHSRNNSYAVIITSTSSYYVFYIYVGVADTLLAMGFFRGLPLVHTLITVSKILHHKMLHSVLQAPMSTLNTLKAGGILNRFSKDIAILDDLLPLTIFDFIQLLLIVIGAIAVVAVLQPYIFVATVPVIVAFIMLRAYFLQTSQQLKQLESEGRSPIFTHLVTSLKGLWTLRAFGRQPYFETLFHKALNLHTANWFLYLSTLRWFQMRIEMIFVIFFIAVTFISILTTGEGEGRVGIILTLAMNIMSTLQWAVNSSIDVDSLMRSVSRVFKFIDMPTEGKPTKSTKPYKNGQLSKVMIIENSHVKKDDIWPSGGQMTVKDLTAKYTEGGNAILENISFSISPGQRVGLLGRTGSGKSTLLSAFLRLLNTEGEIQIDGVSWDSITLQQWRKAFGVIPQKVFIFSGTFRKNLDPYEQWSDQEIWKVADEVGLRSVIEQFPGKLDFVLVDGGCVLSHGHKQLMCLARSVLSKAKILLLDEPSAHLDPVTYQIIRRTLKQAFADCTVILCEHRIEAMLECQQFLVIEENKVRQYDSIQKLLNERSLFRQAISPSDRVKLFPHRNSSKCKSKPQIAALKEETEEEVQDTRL

With `Cn1nc(COc2cccc(F)c2)c2c1CCN(C(=O)Nc1ccc(Cl)cc1)C2` [PDSinh-A01], the “further increase in ASL depth, IL-13-treated cultures” value in experiment [1] (IL-13-treated) is given as approximately 8 μm. Besides, the “effect on ASL depth, basal conditions” value in experiment [1] (no IL-13) was “did not significantly change”. Moreover, the “effect on CFTR activity (Isc response)” value on CFTR is reported as “did not affect the activity”.

For the compound `Cc1n[nH]c(-c2cc(S(=O)(=O)NC3CCCc4ccccc43)c(C)s2)c1C` (stereo not shown) [PDSinh-C01], the “increase in urine volume” value in experiment [2] is listed as approximately 60%.
